Patent US5843999A, “2-phenylazulene derivatives and a manufacturing method of these compounds” (Kotobuki Seiyaku Co., Ltd., priority 1996, dated 1998)

Experiments:
COX-1 = COX-1 (Homo sapiens, UniProt P23219); experiment: Inhibitory activity on COX-1 (PGE2 production from arachidonic acid, PGE2 ELISA; Needleman method); assay type: biochemical; conditions: 1 mM arachidonic acid, 1 μM hematin, pH 8.0, 37° C., 10 min
Method: (§1) Pharmacological experiment are as follows. Inhibitory activity of compounds on COX-1 and COX-2 were assayed according to the method of Needleman (J. Biol. Chem., 254, 9772, 1979). One unit of COX-1 or COX-2 enzyme, suspended with Tris-HCl buffer (pH 8.0, 500 μl) containing 1 μM hematin as co-factor, was incubated with compound and 1 mM arachidonic acid at 37° C. for 10 min. The reaction was stopped with 50 mM indomethacin (50 μl), and amounts of PGE2 in the reaction mixture was assayed using PGE2 ELISA system.

COX-2 = target: T1, COX-2 (Homo sapiens, UniProt P35354); experiment: Inhibitory activity on COX-2 (PGE2 production from arachidonic acid, PGE2 ELISA; Needleman method); assay type: biochemical; conditions: 1 mM arachidonic acid, 1 μM hematin, pH 8.0, 37° C., 10 min
T1 sequence (P35354 18-604): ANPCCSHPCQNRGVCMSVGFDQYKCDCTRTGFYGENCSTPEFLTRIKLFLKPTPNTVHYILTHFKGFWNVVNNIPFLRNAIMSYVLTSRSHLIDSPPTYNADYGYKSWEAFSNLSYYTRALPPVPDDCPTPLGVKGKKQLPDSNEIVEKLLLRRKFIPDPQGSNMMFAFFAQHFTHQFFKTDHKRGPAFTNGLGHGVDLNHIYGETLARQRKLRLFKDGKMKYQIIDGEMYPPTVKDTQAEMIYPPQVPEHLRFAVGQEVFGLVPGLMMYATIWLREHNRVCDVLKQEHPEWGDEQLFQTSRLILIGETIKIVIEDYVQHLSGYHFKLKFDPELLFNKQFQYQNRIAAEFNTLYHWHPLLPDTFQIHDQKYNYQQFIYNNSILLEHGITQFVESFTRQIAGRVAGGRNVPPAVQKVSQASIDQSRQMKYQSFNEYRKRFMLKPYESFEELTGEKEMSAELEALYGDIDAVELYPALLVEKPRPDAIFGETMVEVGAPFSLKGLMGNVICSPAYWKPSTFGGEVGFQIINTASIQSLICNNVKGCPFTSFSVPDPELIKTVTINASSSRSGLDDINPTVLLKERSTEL
Method: as §1

COX-1, sequence (P23219 24-599): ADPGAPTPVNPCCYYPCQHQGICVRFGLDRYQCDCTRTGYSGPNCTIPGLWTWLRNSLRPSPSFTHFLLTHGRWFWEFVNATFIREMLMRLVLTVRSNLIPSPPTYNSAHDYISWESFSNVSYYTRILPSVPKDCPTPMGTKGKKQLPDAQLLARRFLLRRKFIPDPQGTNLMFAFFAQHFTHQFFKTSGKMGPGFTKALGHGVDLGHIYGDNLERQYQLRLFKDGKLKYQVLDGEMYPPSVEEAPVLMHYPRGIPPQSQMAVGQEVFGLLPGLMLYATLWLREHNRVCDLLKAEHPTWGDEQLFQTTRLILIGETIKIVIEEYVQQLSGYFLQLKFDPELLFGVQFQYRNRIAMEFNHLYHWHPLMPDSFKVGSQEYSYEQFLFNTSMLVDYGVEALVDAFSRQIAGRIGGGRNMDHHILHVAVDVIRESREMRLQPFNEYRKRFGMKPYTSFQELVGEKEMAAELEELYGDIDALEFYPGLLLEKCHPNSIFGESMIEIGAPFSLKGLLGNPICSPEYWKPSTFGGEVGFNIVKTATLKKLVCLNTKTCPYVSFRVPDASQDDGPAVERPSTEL

SMILES | IC50 (COX-1) [nM] | IC50 (COX-2) [nM]
Cc1ccc(-c2c3cccccc-3cc2-c2ccc(S(C)(=O)=O)cc2)cc1Cl [Compound 12, 1-(3-Chloro-4-methylphenyl)-2-(4-methylsulfonylphenyl)azulene] | > 10000 | 4.9
COc1cccc(-c2c3cccccc-3cc2-c2ccc(S(C)(=O)=O)cc2)c1 [Compound 9, 1-(3-Methoxyphenyl)-2-(4-methylsulfonylphenyl)azulene] | > 10000 | 4800
COc1ccc(-c2c3cccccc-3cc2-c2ccc(S(N)(=O)=O)cc2)cc1Cl [Compound 34, 4-[1-(3-Chloro4-methoxyphenyl)azulene-2-yl]phenylsulfonamide] | 960 | 3.4
COc1ccc(-c2c3cccccc-3cc2-c2ccc(S(N)(=O)=O)cc2)cc1OC [Compound 39, 4-[1-(3,4-Dimethoxyphenyl)azulene-2-yl]phenylsulfonamide] | > 10000 | 290
COc1ccc(-c2c3cccccc-3cc2-c2ccc(S(C)(=O)=O)cc2)cc1F [Compound 14, 1-(3-Fluoro-4-methoxyphenyl)-2-(4-methylsulfonylphenyl)azulene] | > 10000 | 8.4
NS(=O)(=O)c1ccc(-c2cc3cccccc-3c2-c2cccc(F)c2)cc1 [Compound 29, 4-[1-(3-Fluorophenyl)azulene-2-yl]phenylsulfonamide] | 4700 | 770
COc1ccc(-c2c3cccccc-3cc2-c2ccc(S(C)(=O)=O)cc2)cc1Cl [Compound 13, 1-(3-Chloro4-methoxyphenyl)-2-(4-methylsulfonylphenyl)azulene] | > 10000 | 19
NS(=O)(=O)c1ccc(-c2cc3cccccc-3c2-c2cccc(Cl)c2)cc1 [Compound 28, 4-[1-(3-Chlorophenyl)azulene-2-yl]phenylsulfonamide] | 7600 | 2600
COc1ccc(-c2c3cccccc-3cc2-c2ccc(S(N)(=O)=O)cc2)cc1F [Compound 35, 4-[l-(3-Fluoro-4-methoxyphenyl)azulene-2-yl]phenylsulfonamide] | 6700 | 22
COc1ccc(-c2c3cccccc-3cc2-c2ccc(S(C)(=O)=O)cc2)cc1 [Compound 10, 1-(4-Methoxyphenyl)-2-(4-methylsulfonylphenyl)azulene] | > 10000 | 3700
NS(=O)(=O)c1ccc(-c2cc3cccccc-3c2-c2ccc(F)c(Cl)c2)cc1 [Compound 32, 4-[1-(3-Chloro-4-fluorophenyl)azulene-2-yl]phenylsulfonamide] | > 10000 | 12
Cc1cccc(-c2c3cccccc-3cc2-c2ccc(S(N)(=O)=O)cc2)c1 [Compound 30, 4-[1-(3-Methylphenyl)azulene-2-yl]phenylsulfonamide] | 4300 | 500
COc1cccc(-c2c3cccccc-3cc2-c2ccc(S(N)(=O)=O)cc2)c1 [Compound 31, 4-[1-(3-Methoxyphenyl)azulene-2-yl]phenylsulfonamide] | > 10000 | 2500
Cc1ccc(-c2c3cccccc-3cc2-c2ccc(S(N)(=O)=O)cc2)cc1Cl [Compound 33, 4-[1-(3-Chloro4-methylphenyl)azulene-2-yl]phenylsulfonamide] | 4100 | 2.6
COc1ccc(-c2c3cccccc-3cc2-c2ccc(S(C)(=O)=O)cc2)cc1OC [Compound 38, 1-(3,4-Dimethoxyphenyl)-2-(4-methylsulfonylphenyl)azulene] | > 10000 | 64
CS(=O)(=O)c1ccc(-c2cc3cccccc-3c2-c2ccc(F)c(Cl)c2)cc1 [Compound 11, 1-(3-Chloro-4-fluorophenyl)-2-(4-methylsulfonylphenyl)azulene] | > 10000 | 83

Further lines, results first:

IC50 (COX-1) [nM] | IC50 (COX-2) [nM] | SMILES
> 10000 | 760 | CS(=O)(=O)c1ccc(-c2cc3cccccc-3c2-c2ccccc2)cc1 [Compound 1, 2-(4-Methylsulfonylphenyl)-1-phenylazulene]
> 10000 | 30 | CS(=O)(=O)c1ccc(-c2cc3cccccc-3c2-c2ccc(Cl)cc2)cc1 [Compound 4, 1-(4-Chlorophenyl)-2-(4-methylsulfonylphenyl)azulene]
> 10000 | 7900 | CS(=O)(=O)c1ccc(-c2c(F)c3cccccc-3c2-c2ccccc2)cc1 [Compound 21, 1-Fluoro-2-(4-methylsulfonylphenyl)-3-phenylazulene]
> 10000 | 48 | Cc1cccc(-c2c3cccccc-3cc2-c2ccc(S(C)(=O)=O)cc2)c1 [Compound 7, 1-(3-Methylphenyl)-2-(4-methylsulfonylphenyl)azulene]
> 10000 | 8.6 | NS(=O)(=O)c1ccc(-c2cc3cccccc-3c2-c2ccccc2)cc1 [Compound 27, 4-(1-Phenylazulene-2-yl)phenylsulfonamide]
> 10000 | 6900 | CS(=O)(=O)c1ccc(-c2cc3cccccc-3c2-c2ccccc2Cl)cc1 [Compound 2, 1-(2-Chlorophenyl)-2-(4-methylsulfonylphenyl)azulene]
> 10000 | > 10000 | CS(=O)(=O)c1ccc(-c2cc3cccccc-3c2-c2cccc(F)c2)cc1 [Compound 5, 1-(3-Fluorophenyl)-2-(4-methylsulfonylphenyl)azulene]
> 10000 | 9.3 | CS(=O)(=O)c1ccc(-c2cc3cccccc-3c2-c2cccc(Cl)c2)cc1 [Compound 3, 1-(3-Chlorophenyl)-2-(4-methylsulfonylphenyl)azulene]
> 10000 | 1200 | CS(=O)(=O)c1ccc(-c2cc3cccccc-3c2-c2ccc(F)cc2)cc1 [Compound 6, 1-(4-Fluorophenyl)-2-(4-methylsulfonylphenyl)azulene]
> 10000 | 7400 | Cc1ccc(-c2c3cccccc-3cc2-c2ccc(S(C)(=O)=O)cc2)cc1 [Compound 8, 1-(4-Methylphenyl)-2-(4-methylsulfonylphenyl)azulene]
